PubChem BioAssay (NCI)
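Five concentrations, 48 hours, 96-well plates. TGI is the concentration that stops growth completely.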

Tests used:
Test in all cases: DTP human tumour cell line panel, 48 h
LXFL 529 NSCLC = system: LXFL 529 NSCLC
MOLT-4 leukemia = system: MOLT-4 leukemia
HOP-62 NSCLC = system: HOP-62 NSCLC
HCT-116 colon = system: HCT-116 colon
HOP-92 NSCLC = system: HOP-92 NSCLC
COLO 205 colon = system: COLO 205 colon
M19-MEL melanoma = system: M19-MEL melanoma
HCC-2998 colon = system: HCC-2998 colon
M14 melanoma = system: M14 melanoma
OVCAR-4 ovarian = system: OVCAR-4 ovarian
SK-MEL-5 melanoma = system: SK-MEL-5 melanoma
SR leukemia = system: SR leukemia
MALME-3M melanoma = system: MALME-3M melanoma
UACC-62 melanoma = system: UACC-62 melanoma
EKVX NSCLC = system: EKVX NSCLC
A498 renal = system: A498 renal
HOP-18 NSCLC = system: HOP-18 NSCLC
OVCAR-8 ovarian = system: OVCAR-8 ovarian
ACHN renal = system: ACHN renal
A549 NSCLC = system: A549 NSCLC
CCRF-CEM leukemia = system: CCRF-CEM leukemia
TK-10 renal = system: TK-10 renal
IGROV1 ovarian = system: IGROV1 ovarian
RPMI-8226 leukemia = system: RPMI-8226 leukemia
SNB-75 CNS = system: SNB-75 CNS
SNB-19 CNS = system: SNB-19 CNS
NCI-H522 lung = system: NCI-H522 lung
U251 CNS = system: U251 CNS
RXF 393 renal = system: RXF 393 renal
SK-MEL-28 melanoma = system: SK-MEL-28 melanoma
SW-620 colon = system: SW-620 colon
786-0 renal = system: 786-0 renal
CAKI-1 renal = system: CAKI-1 renal
SK-MEL-2 melanoma = system: SK-MEL-2 melanoma
SN12C renal = system: SN12C renal
UACC-257 melanoma = system: UACC-257 melanoma
NCI-H460 lung = system: NCI-H460 lung
DMS 273 small cell lung = system: DMS 273 small cell lung
K-562 leukemia = system: K-562 leukemia
KM12 colon = system: KM12 colon
OVCAR-5 ovarian = system: OVCAR-5 ovarian
SF-295 CNS = system: SF-295 CNS
SK-OV-3 ovarian = system: SK-OV-3 ovarian
OVCAR-3 ovarian = system: OVCAR-3 ovarian
KM20L2 colon = system: KM20L2 colon
DLD-1 colon = system: DLD-1 colon
LOX IMVI melanoma = system: LOX IMVI melanoma
HT29 colon = system: HT29 colon
DMS 114 small cell lung = system: DMS 114 small cell lung
SF-268 CNS = system: SF-268 CNS
NCI-H23 lung = system: NCI-H23 lung
UO-31 renal = system: UO-31 renal
HCT-15 colon = system: HCT-15 colon
XF 498 CNS = system: XF 498 CNS
T-47D breast = system: T-47D breast
HL-60(TB) leukemia = system: HL-60(TB) leukemia
MDA-MB-231 breast = system: MDA-MB-231 breast
PC-3 prostate = system: PC-3 prostate
SF-539 CNS = system: SF-539 CNS
MDA-MB-435 = system: MDA-MB-435
BT-549 breast = system: BT-549 breast
NCI/ADR-RES ovarian = system: NCI/ADR-RES ovarian
NCI-H226 lung = system: NCI-H226 lung
HS 578T breast = system: HS 578T breast
MCF7 breast = system: MCF7 breast
DU-145 prostate = system: DU-145 prostate
MDA-N = system: MDA-N

## CCOC(=O)C(=O)/C=C(\C)Nc1c(NC2OCC(OC(C)=O)C(OC(C)=O)C2OC(C)=O)nc(SC)[nH]c1=O (centres undefined)
LXFL 529 NSCLC
  TGI: > 100 µM
MOLT-4 leukemia
  TGI: > 100 µM
HOP-62 NSCLC
  TGI: > 100 µM
HCT-116 colon
  TGI: > 100 µM
HOP-92 NSCLC
  TGI: > 100 µM
COLO 205 colon
  TGI: > 100 µM
M19-MEL melanoma
  TGI: > 100 µM
HCC-2998 colon
  TGI: > 100 µM
M14 melanoma
  TGI: > 100 µM
OVCAR-4 ovarian
  TGI: > 100 µM
SK-MEL-5 melanoma
  TGI: > 100 µM
SR leukemia
  TGI: > 100 µM
MALME-3M melanoma
  TGI: > 100 µM
UACC-62 melanoma
  TGI: > 100 µM
EKVX NSCLC
  TGI: > 100 µM
A498 renal
  TGI: > 100 µM
HOP-18 NSCLC
  TGI: > 100 µM
OVCAR-8 ovarian
  TGI: > 100 µM
ACHN renal
  TGI: > 100 µM
A549 NSCLC
  TGI: > 100 µM
CCRF-CEM leukemia
  TGI: > 100 µM
TK-10 renal
  TGI: > 100 µM
IGROV1 ovarian
  TGI: > 100 µM
RPMI-8226 leukemia
  TGI: > 100 µM
SNB-75 CNS
  TGI: > 100 µM
SNB-19 CNS
  TGI: > 100 µM
NCI-H522 lung
  TGI: > 100 µM
U251 CNS
  TGI: > 100 µM
RXF 393 renal
  TGI: > 100 µM
SK-MEL-28 melanoma
  TGI: > 100 µM
SW-620 colon
  TGI: > 100 µM
786-0 renal
  TGI: > 100 µM
CAKI-1 renal
  TGI: > 100 µM
SK-MEL-2 melanoma
  TGI: > 100 µM
SN12C renal
  TGI: > 100 µM
UACC-257 melanoma
  TGI: > 100 µM
NCI-H460 lung
  TGI: > 100 µM
DMS 273 small cell lung
  TGI: > 100 µM
K-562 leukemia
  TGI: > 100 µM
KM12 colon
  TGI: > 100 µM
OVCAR-5 ovarian
  TGI: > 100 µM
SF-295 CNS
  TGI: > 100 µM
SK-OV-3 ovarian
  TGI: > 100 µM
OVCAR-3 ovarian
  TGI: > 100 µM
KM20L2 colon
  TGI: > 100 µM
DLD-1 colon
  TGI: > 100 µM
LOX IMVI melanoma
  TGI: > 100 µM
HT29 colon
  TGI: > 100 µM
DMS 114 small cell lung
  TGI: > 100 µM
SF-268 CNS
  TGI: > 100 µM
NCI-H23 lung
  TGI: > 100 µM
UO-31 renal
  TGI: > 100 µM
HCT-15 colon
  TGI: > 100 µM
XF 498 CNS
  TGI: > 100 µM

## COc1nc(NC2OC(COC(C)=O)C(OC(C)=O)C(OC(C)=O)C2OC(C)=O)c(N=CC=Nc2c(NC3OC(COC(C)=O)C(OC(C)=O)C(OC(C)=O)C3OC(C)=O)nc(OC)n(C)c2=O)c(=O)n1C (centres undefined)
LXFL 529 NSCLC
  TGI: > 100 µM
MOLT-4 leukemia
  TGI: > 100 µM
HOP-62 NSCLC
  TGI: > 86.6 µM
HCT-116 colon
  TGI: > 100 µM
HOP-92 NSCLC
  TGI: > 93.1 µM
COLO 205 colon
  TGI: > 100 µM
M19-MEL melanoma
  TGI: > 100 µM
HCC-2998 colon
  TGI: > 100 µM
M14 melanoma
  TGI: > 100 µM
OVCAR-4 ovarian
  TGI: > 100 µM
SK-MEL-5 melanoma
  TGI: > 100 µM
T-47D breast
  TGI: > 100 µM
HL-60(TB) leukemia
  TGI: > 100 µM
SR leukemia
  TGI: > 100 µM
MDA-MB-231 breast
  TGI: > 100 µM
MALME-3M melanoma
  TGI: > 100 µM
PC-3 prostate
  TGI: > 100 µM
UACC-62 melanoma
  TGI: > 100 µM
EKVX NSCLC
  TGI: > 100 µM
A498 renal
  TGI: > 100 µM
SF-539 CNS
  TGI: > 100 µM
HOP-18 NSCLC
  TGI: > 100 µM
OVCAR-8 ovarian
  TGI: > 100 µM
ACHN renal
  TGI: > 100 µM
A549 NSCLC
  TGI: > 100 µM
MDA-MB-435
  TGI: > 100 µM
CCRF-CEM leukemia
  TGI: > 100 µM
TK-10 renal
  TGI: > 100 µM
IGROV1 ovarian
  TGI: > 100 µM
RPMI-8226 leukemia
  TGI: > 100 µM
SNB-75 CNS
  TGI: 48.2 µM
BT-549 breast
  TGI: > 100 µM
NCI/ADR-RES ovarian
  TGI: > 100 µM
NCI-H226 lung
  TGI: > 100 µM
SNB-19 CNS
  TGI: > 100 µM
NCI-H522 lung
  TGI: > 100 µM
HS 578T breast
  TGI: 90.2 µM
U251 CNS
  TGI: > 100 µM
RXF 393 renal
  TGI: > 100 µM
SK-MEL-28 melanoma
  TGI: > 100 µM
SW-620 colon
  TGI: > 100 µM
786-0 renal
  TGI: > 100 µM
CAKI-1 renal
  TGI: > 100 µM
SK-MEL-2 melanoma
  TGI: > 100 µM
SN12C renal
  TGI: > 100 µM
UACC-257 melanoma
  TGI: > 100 µM
NCI-H460 lung
  TGI: > 100 µM
MCF7 breast
  TGI: > 100 µM
DU-145 prostate
  TGI: > 100 µM
K-562 leukemia
  TGI: > 100 µM
KM12 colon
  TGI: > 100 µM
OVCAR-5 ovarian
  TGI: > 100 µM
SF-295 CNS
  TGI: > 100 µM
SK-OV-3 ovarian
  TGI: > 100 µM
OVCAR-3 ovarian
  TGI: > 100 µM
KM20L2 colon
  TGI: > 100 µM
DLD-1 colon
  TGI: > 100 µM
LOX IMVI melanoma
  TGI: > 100 µM
MDA-N
  TGI: > 100 µM
HT29 colon
  TGI: > 100 µM
DMS 114 small cell lung
  TGI: > 100 µM
SF-268 CNS
  TGI: > 100 µM
NCI-H23 lung
  TGI: > 100 µM
UO-31 renal
  TGI: > 100 µM
HCT-15 colon
  TGI: > 100 µM
XF 498 CNS
  TGI: 81.9 µM

## CCOC(=O)N1C=NC23C(c4ccccc4)C(c4ccccc4)C12C(=O)N(C)C(=O)N3C (centres undefined)
LXFL 529 NSCLC
  TGI: > 100 µM
MOLT-4 leukemia
  TGI: > 100 µM
HOP-62 NSCLC
  TGI: > 100 µM
HCT-116 colon
  TGI: > 100 µM
HOP-92 NSCLC
  TGI: > 100 µM
COLO 205 colon
  TGI: > 100 µM
M19-MEL melanoma
  TGI: > 100 µM
HCC-2998 colon
  TGI: > 100 µM
M14 melanoma
  TGI: > 100 µM
OVCAR-4 ovarian
  TGI: > 100 µM
SK-MEL-5 melanoma
  TGI: > 100 µM
HL-60(TB) leukemia
  TGI: > 100 µM
SR leukemia
  TGI: > 100 µM
MALME-3M melanoma
  TGI: > 100 µM
UACC-62 melanoma
  TGI: > 100 µM
EKVX NSCLC
  TGI: > 100 µM
A498 renal
  TGI: > 100 µM
HOP-18 NSCLC
  TGI: > 100 µM
OVCAR-8 ovarian
  TGI: > 100 µM
ACHN renal
  TGI: > 100 µM
A549 NSCLC
  TGI: > 100 µM
CCRF-CEM leukemia
  TGI: > 100 µM
TK-10 renal
  TGI: > 100 µM
IGROV1 ovarian
  TGI: > 100 µM
RPMI-8226 leukemia
  TGI: > 100 µM
SNB-75 CNS
  TGI: > 100 µM
SNB-19 CNS
  TGI: > 100 µM
NCI-H522 lung
  TGI: > 100 µM
U251 CNS
  TGI: > 100 µM
RXF 393 renal
  TGI: > 100 µM
SK-MEL-28 melanoma
  TGI: > 100 µM
SW-620 colon
  TGI: > 100 µM
786-0 renal
  TGI: > 100 µM
CAKI-1 renal
  TGI: > 100 µM
SK-MEL-2 melanoma
  TGI: > 100 µM
SN12C renal
  TGI: > 100 µM
UACC-257 melanoma
  TGI: > 100 µM
NCI-H460 lung
  TGI: > 100 µM
DMS 273 small cell lung
  TGI: > 100 µM
K-562 leukemia
  TGI: > 100 µM
KM12 colon
  TGI: > 100 µM
OVCAR-5 ovarian
  TGI: > 100 µM
SF-295 CNS
  TGI: > 100 µM
SK-OV-3 ovarian
  TGI: > 100 µM
OVCAR-3 ovarian
  TGI: > 100 µM
KM20L2 colon
  TGI: > 100 µM
DLD-1 colon
  TGI: > 100 µM
LOX IMVI melanoma
  TGI: > 100 µM
HT29 colon
  TGI: > 100 µM
SF-268 CNS
  TGI: > 100 µM
NCI-H23 lung
  TGI: > 100 µM
UO-31 renal
  TGI: > 100 µM
HCT-15 colon
  TGI: > 100 µM
XF 498 CNS
  TGI: > 100 µM
